± gives the expanded uncertainty stated by the source.
Test: molar heat capacity at constant pressure
Conditions: 101.33 kPa, Crystal, Vacuum adiabatic calorimetry

C(#Cc1ccccc1)c1ccccc1 [1,2-diphenylethyne]
Conditions | molar heat capacity at constant pressure [J/K/mol]
50 K | 55.37 ± 0.46
50.26 K | 55.73 ± 0.46
50.82 K | 56.2 ± 0.46
51.38 K | 56.69 ± 0.47
51.94 K | 57.24 ± 0.47
52.5 K | 57.84 ± 0.48
53.06 K | 58.52 ± 0.48
53.62 K | 59.22 ± 0.49
54.18 K | 59.95 ± 0.49
54.74 K | 60.54 ± 0.5
55 K | 60.87 ± 0.5
55.3 K | 61.31 ± 0.5
55.87 K | 61.85 ± 0.51
56.43 K | 62.34 ± 0.51
56.99 K | 62.76 ± 0.52
57.55 K | 63.28 ± 0.52
58.11 K | 63.73 ± 0.52
58.67 K | 64.14 ± 0.53
59.23 K | 64.53 ± 0.53
59.8 K | 64.94 ± 0.53
60 K | 65.09 ± 0.54
60.36 K | 65.36 ± 0.54
60.92 K | 65.81 ± 0.54
61.48 K | 66.28 ± 0.54
62.04 K | 66.76 ± 0.55
62.6 K | 67.25 ± 0.55
63.16 K | 67.82 ± 0.56
63.73 K | 68.11 ± 0.56
64.29 K | 68.62 ± 0.56
64.85 K | 68.97 ± 0.57
65 K | 69.08 ± 0.57
65.42 K | 69.41 ± 0.57
65.98 K | 69.58 ± 0.57
66.54 K | 69.95 ± 0.57
67.11 K | 70.3 ± 0.58
67.67 K | 70.73 ± 0.58
68.23 K | 71.09 ± 0.58
68.8 K | 71.47 ± 0.59
69.36 K | 71.95 ± 0.59
69.92 K | 72.22 ± 0.59
70 K | 72.22 ± 0.59
70.61 K | 72.52 ± 0.59
71.41 K | 72.9 ± 0.6
72.21 K | 73.45 ± 0.6
73.01 K | 73.99 ± 0.61
73.82 K | 74.48 ± 0.61
74.62 K | 74.91 ± 0.61
75 K | 75.15 ± 0.62
75.42 K | 75.39 ± 0.62
76.23 K | 75.72 ± 0.62
77.03 K | 76.12 ± 0.62
77.83 K | 76.43 ± 0.63
78.64 K | 76.81 ± 0.63
79.44 K | 77.36 ± 0.63
80 K | 77.65 ± 0.64
80.24 K | 77.8 ± 0.64
81.05 K | 78.26 ± 0.64
81.85 K | 78.59 ± 0.64
82.56 K | 78.83 ± 0.65
82.65 K | 79 ± 0.65
83.36 K | 79.36 ± 0.65
83.46 K | 79.49 ± 0.65
84.16 K | 79.79 ± 0.65
84.26 K | 79.97 ± 0.66
84.96 K | 80.29 ± 0.66
85 K | 80.26 ± 0.66
85.77 K | 80.6 ± 0.66
86.57 K | 81.07 ± 0.66
87.37 K | 81.61 ± 0.67
88.17 K | 81.87 ± 0.67
88.98 K | 82.43 ± 0.68
89.78 K | 82.92 ± 0.68
90 K | 82.96 ± 0.69
90.58 K | 83.29 ± 0.7
91.39 K | 83.69 ± 0.7
92.19 K | 84.3 ± 0.7
92.99 K | 84.62 ± 0.71
93.8 K | 85.08 ± 0.71
94.6 K | 85.51 ± 0.71
95 K | 85.79 ± 0.72
95.4 K | 85.87 ± 0.72
96.21 K | 86.49 ± 0.72
97.01 K | 86.97 ± 0.72
97.81 K | 87.46 ± 0.73
98.61 K | 87.8 ± 0.73
99.42 K | 88.33 ± 0.74
100 K | 88.7 ± 0.74
100.22 K | 88.79 ± 0.74
101.02 K | 89.52 ± 0.74
101.82 K | 89.71 ± 0.75
102.62 K | 90.12 ± 0.75
103.42 K | 90.81 ± 0.76
104.22 K | 91.27 ± 0.76
105.03 K | 91.64 ± 0.76
105.84 K | 92.04 ± 0.77
106.64 K | 92.61 ± 0.77
107.45 K | 93.03 ± 0.77
108.25 K | 93.65 ± 0.78
109.06 K | 94.16 ± 0.78
109.87 K | 94.48 ± 0.78
110 K | 94.56 ± 0.79
110.68 K | 94.84 ± 0.79
111.49 K | 95.38 ± 0.79
112.3 K | 95.96 ± 0.8
113.12 K | 96.26 ± 0.8
113.93 K | 96.77 ± 0.8
114.74 K | 97.3 ± 0.81
115.56 K | 97.84 ± 0.81
116.37 K | 98.29 ± 0.81
117.19 K | 98.7 ± 0.82
118.01 K | 99.29 ± 0.82
118.83 K | 99.69 ± 0.82
119.65 K | 100.31 ± 0.83
120 K | 100.39 ± 0.83
120.47 K | 100.58 ± 0.83
121.29 K | 101.29 ± 0.84
122.11 K | 101.7 ± 0.84

Reference: the NIST ThermoML archive (doi:10.1021/je200673a)
